{"source": "paper PMC12501029", "about": "“Discovery of a CNS active GSK3 degrader using orthogonally reactive linker screening” (Nature Communications, 2025)", "key": {"[1]": {"biological_target": "T1, GSK3β-HiBiT (GSK3β-HiBiT KI HEK293 cells) (Homo sapiens, UniProt P49841)", "T1 construct": "we generated endogenously tagged GSK3β-HiBiT knock-in (KI) HEK293 cells; endogenous in cells; host or cells: GSK3β-HiBiT knock-in HEK293 cells (CRISPR/Cas9, single-cell clone)", "T1 sequence (P49841 whole entry)": "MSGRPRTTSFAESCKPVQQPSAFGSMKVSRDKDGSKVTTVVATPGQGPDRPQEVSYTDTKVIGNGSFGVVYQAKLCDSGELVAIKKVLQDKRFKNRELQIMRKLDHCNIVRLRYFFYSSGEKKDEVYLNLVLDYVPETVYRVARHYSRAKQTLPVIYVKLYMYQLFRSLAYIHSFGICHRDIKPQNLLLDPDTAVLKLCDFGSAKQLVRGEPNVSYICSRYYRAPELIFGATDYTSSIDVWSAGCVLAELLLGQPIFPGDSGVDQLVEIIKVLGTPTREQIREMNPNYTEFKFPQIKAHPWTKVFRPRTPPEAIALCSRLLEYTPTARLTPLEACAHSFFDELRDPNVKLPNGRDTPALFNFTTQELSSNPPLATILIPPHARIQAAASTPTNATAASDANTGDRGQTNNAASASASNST", "assay": "Serum shift assay (10% FBS or 10% mouse serum)", "format": "cell-based", "experimental": "Test compounds were serially diluted into white bottom opaque tissue culture grade 384-well assay plates (Perkin Elmer) using Echo500 (Labcyte) and GSK3β-HiBiT KI HEK293 cells were seeded at a density of 5 × 10^3 cells per well either in 50 µL of DMEM supplemented with regular 10% FBS (Gibco) or instead 10% mouse serum (Balb/C) and plates were incubated for compound treatment in incubators at 37 °C. After 24 h of compound treatment, HiBiT lytic reagents (Promega) prepared according to manufacturers’ instructions were added into plates and luminescence signal was measured on a PheraStar plate reader (BMG) and data analysed using GraphPad Prism (v10.1.2) as previously described above."}, "mouse GSK3β": {"biological_target": "T2, mouse GSK3β (Mus musculus, UniProt Q9WV60)", "T2 construct": "Immunoblotting based endogenous degradation profile of KH1 (24) in mouse embryonic fibroblast (MEF) cells; host or cells: MEF cells", "T2 sequence (Q9WV60 whole entry)": "as the sequence (P49841 whole entry) above, with T390P, T392A, A400T, T402A counted along it", "assay": "Immunoblot degradation in mouse embryonic fibroblast (MEF) cells, 4 h", "format": "cell-based", "experimental": "HEK293, HAP1, HAP1 CRBN KO and SH-SY5Y cells were plated in either 6 cm plates or 6-well plates at varying densities (0.5–0.7 × 10^6 cells per plate or wells), and MEF cells were plated in 10 cm plates (1–1.2 × 10^6 cells per plate) depending on experimental set up in respective culturing condition as described above. Stock solutions of compounds were prepared as 10 mM in DMSO (Sigma–Aldrich). Working dilutions were made up fresh in DMSO and culturing media or differentiation media was refreshed prior to any compound treatments. For mode of action studies, cells were pre-treated with inhibitors for 2 h: 1 µM MG132 (Merck, 474790-5 mg), 1 µM MLN4924 (Merck, 5054770001) or 1 µM GSK3 inhibitor (compound 29), before treating with PROTACs for 2, 4 or 24 h as indicated in figure legends. Cells were washed twice with ice-cold PBS (Gibco), harvested in PBS and pelleted, cells were resuspended in RIPA buffer supplemented with complete EDTA-free protease inhibitor cocktail (Roche,11873580001, 1/10 mL) and phosSTOP (Roche, 04906845001, 1 tablet/10 mL) for 20 min lysis on ice then cleared via centrifugation at 16,000 × g, 4 °C for 20 min. […] Following clearance of lysates, protein concentrations were determined by the BCA assay (Fisher Scientific, 23225) or Bradford assay (Bio-rad). […]"}}}
{"smiles": "Cn1nc(N2CCC(=O)NC2=O)c2ccc(CN3CCN(Cc4ccc(-c5cn(-c6ccc(-c7cn8nccc(C(=O)Nc9cnccc9N9CCOCC9)c8n7)cc6)nn5)nc4)CC3)cc21", "note": "[compound 24]", "values": [{"measurement": "DC50", "setting": "[1]; 10% foetal bovine serum (FBS), 24 h", "value": 1.3, "unit": "nM"}, {"measurement": "DC50", "setting": "[1]; 10% mouse serum (MS), 24 h", "value": 10.4, "unit": "nM"}, {"measurement": "Dmax", "setting": "[1]; HEK293, 10% foetal bovine serum (FBS), 24 h", "value": 89, "unit": "%"}, {"measurement": "predicted shift in whole blood", "setting": "[1]; extrapolated from 10% mouse serum shift", "value": "~ 80 ×"}, {"measurement": "free fraction in mouse plasma from serum shift", "setting": "[1]; extrapolated from serum shift assay", "value": "~ 1.2%"}, {"measurement": "DC50", "setting": "mouse GSK3β", "value": "0.1 to 1", "unit": "nM"}]}
